Experimental data as given in ChEMBL document CHEMBL1122943, “Cardiotonic agents. 2. Synthesis and structure-activity relationships of 4,5-dihydro-6-[4-(1H-imidazol-1-yl)phenyl]-3(2H)-pyridazinones: a new class of positive inotropic agents” (1985).

Columns and labels:
[1] = tested on: Canis familiaris; assay: Evaluated for 50% increase of myocardial contractility in anesthetized dog, administered intravenously; type: functional, Canis lupus familiaris, Myocardium
[2] = tested on: Canis familiaris; assay: Compound was evaluated for 40-60% increase of myocardial contractility in a conscious dog model orally administered.; type: functional, Canis lupus familiaris, Myocardium
[3] = tested on: Canis familiaris; assay: Compound was evaluated for 40-60% increase of myocardial contractility in a conscious dog model orally administered; type: functional, Canis lupus familiaris, Myocardium
[4] = tested on: Canis familiaris; assay: Compound was evaluated for 50% increase of myocardial contractility in a conscious dog model orally administered.; type: functional, Canis lupus familiaris, Myocardium
[5] = tested on: Canis familiaris; assay: Compound was evaluated for 40-60% increase of myocardial contractility in a conscious dog model perorally administered; type: functional, Canis lupus familiaris, Myocardium
[6] = tested on: Canis familiaris; assay: Percent increase in heart rate was evaluated by effect of Cardiotonic agents on myocardial contractility in conscious dog administered orally at dose of 0.31 mg/kg; type: functional, Canis lupus familiaris; settings: route oral
[7] = tested on: Canis familiaris; assay: Percent increase in contractility was evaluated by effect of Cardiotonic agents on myocardial contractility in conscious dog administered orally at dose of 0.1 mg/kg; type: functional, Canis lupus familiaris, Myocardium; settings: route oral
[8] = tested on: Canis familiaris; assay: Percent increase in contractility was evaluated by effect of Cardiotonic agents on myocardial contractility in conscious dog administered orally at dose of 0.31 mg/kg; type: functional, Canis lupus familiaris, Myocardium; settings: route oral
[9] = tested on: Canis familiaris; assay: Percent increase in heart rate was evaluated by effect of Cardiotonic agents on myocardial contractility in conscious dog administered orally at dose of 0.1 mg/kg; Value is not statistically significant.; type: functional, Canis lupus familiaris; settings: route oral
[10] = tested on: Canis familiaris; assay: Percent increase in heart rate was evaluated by effect of Cardiotonic agents on myocardial contractility in conscious dog administered orally at dose of 0.31 mg/kg; Value ranges from(10-15); type: functional, Canis lupus familiaris; settings: route oral
[11] = tested on: Canis familiaris; assay: Cardiovascular activity(blood pressure) (0.31 mg/kg) in dog before beta-blockade.; type: functional, Canis lupus familiaris
[12] = tested on: Canis familiaris; assay: Percent increase in heart rate was evaluated by effect of Cardiotonic agents on myocardial contractility in conscious dog administered orally at dose of 1.0 mg/kg; type: functional, Canis lupus familiaris; settings: route oral
[13] = tested on: Canis familiaris; assay: Cardiovascular activity(blood pressure) (0.31 mg/kg) in dog after beta-blockade; type: functional, Canis lupus familiaris
[14] = tested on: Canis familiaris; assay: Cardiovascular activity (contractility) (0.31 mg/kg) in dog after beta-blockade; type: functional, Canis lupus familiaris
[15] = tested on: Canis familiaris; assay: Percent increase in contractility was evaluated by effect of Cardiotonic agents on myocardial contractility in conscious dog administered orally at dose of 0.31 mg/kg; Value ranges from (10-20); type: functional, Canis lupus familiaris, Myocardium; settings: route oral
[16] = tested on: Canis familiaris; assay: Cardiovascular activity(heart rate) (0.31 mg/kg) in dog after beta-blockade; type: functional, Canis lupus familiaris
[17] = tested on: Canis familiaris; assay: Cardiovascular activity(heart rate) (0.31 mg/kg) in dog before beta-blockade; type: functional, Canis lupus familiaris
[18] = tested on: Canis familiaris; assay: Cardiovascular activity (contractility) (0.31 mg/kg) in dog before beta-blockade.; type: functional, Canis lupus familiaris
[19] = tested on: Canis familiaris; assay: Percent increase in contractility was evaluated by effect of Cardiotonic agents on myocardial contractility in conscious dog administered orally at dose of 1.0 mg/kg; type: functional, Canis lupus familiaris, Myocardium; settings: route oral
[20] = tested on: Canis familiaris; assay: Percent increase in contractility was evaluated by effect of Cardiotonic agents on myocardial contractility in conscious dog administered orally at dose of 10 mg/kg; type: functional, Canis lupus familiaris, Myocardium; settings: route oral
[21] = tested on: Canis familiaris; assay: Percent increase in heart rate was evaluated by effect of Cardiotonic agents on myocardial contractility in conscious dog administered orally at dose of 3.1 mg/kg; type: functional, Canis lupus familiaris; settings: route oral
[22] = tested on: Canis familiaris; assay: Percent increase in heart rate was evaluated by effect of Cardiotonic agents on myocardial contractility in conscious dog administered orally at dose of 10 mg/kg; type: functional, Canis lupus familiaris; settings: route oral
[23] = tested on: Canis familiaris; assay: Percent increase in contractility was evaluated by effect of Cardiotonic agents on myocardial contractility in conscious dog administered orally at dose of 3.1 mg/kg; type: functional, Canis lupus familiaris, Myocardium; settings: route oral
[24] = tested on: Canis familiaris; assay: Cardiovascular activity (blood pressure) (0.31 ug/kg)in dog after beta-blockade; type: functional, Canis lupus familiaris
[25] = tested on: Canis familiaris; assay: Cardiovascular activity (heart rate) (0.31 ug/kg) in dog before beta-blockade; type: functional, Canis lupus familiaris
[26] = tested on: Canis familiaris; assay: Cardiovascular activity (contractility) (0.31 ug/kg) in dog before beta-blockade.; type: functional, Canis lupus familiaris
[27] = tested on: Canis familiaris; assay: Cardiovascular activity (contractility) (0.31 ug/kg) in dog after beta-blockade; type: functional, Canis lupus familiaris
[28] = tested on: Canis familiaris; assay: Cardiovascular activity (blood pressure) (0.31 ug/kg) in dog before beta-blockade; type: functional, Canis lupus familiaris
[29] = tested on: Canis familiaris; assay: Cardiovascular activity (heart rate) (0.31 ug/kg) in dog after beta-blockade.; type: functional, Canis lupus familiaris

NNC(=O)c1cc(-c2ccc(-n3ccnc3)cc2)nnc1O
Dose [1]: 1 mg/kg

O=C1CCC(c2ccc(-n3cccn3)cc2)=NN1
Dose [2]: >3.1 mg/kg

Oc1ccc(-c2cccc(-n3ccnc3)c2)nn1
Dose [1]: 0.2 mg/kg

Cc1cc(O)nnc1-c1ccc(-n2cnc3c2CCCC3)cc1
Dose [1]: >0.1 mg/kg

Cc1cc(-c2ccc(-n3ccnc3)cc2)nnc1O
Dose [1]: 0.3 mg/kg

O=C1CCC(c2ccc(-n3cnc(CO)c3)cc2)=NN1
Dose [1]: 0.034 mg/kg

Oc1ccc(-c2ccc(-n3ccnc3)cc2)nn1
Dose [1]: 0.1 mg/kg

O=c1ccc(-c2ccc(-n3ccnc3)cc2)nn1CCO
Dose [1]: >1 mg/kg

O=C1CCC(c2ccc(-n3ccnc3)cc2)=NN1Cc1ccccc1
Dose [3]: 10 mg/kg

O=C1CCC(c2ccc(-n3ccnc3S)cc2)=NN1
Dose [2]: >10 mg/kg

O=C1NN=C(c2ccc(-n3ccnc3)cc2)C2CCCCC12 (stereo not drawn)
Dose [1]: 1 mg/kg

CCC1CC(=O)NN=C1c1ccc(-n2ccnc2)cc1 (stereo not drawn)
Dose [1]: 1 mg/kg

O=C1CCC(c2cccc(-n3ccnc3)c2)=NN1
Dose [4]: >1 mg/kg

Cc1nccn1-c1ccc(C2=NNC(=O)CC2)cc1
Dose [1]: 0.3 mg/kg | Dose [5]: 1 mg/kg

O=C1CCC(c2ccc(-n3cnc4ccccc43)cc2)=NN1
Dose [3]: 3.1 mg/kg | Dose [1]: 0.1 mg/kg

Cc1nccn1-c1ccc(-c2ccc(O)nn2)cc1
Dose [1]: 0.1 mg/kg

O=C1CCC(c2ccc(-n3cnc4c3CCCC4)cc2)=NN1
Dose [3]: >1 mg/kg | Dose [1]: 0.064 mg/kg

CCc1nc(C)cn1-c1ccc(C2=NNC(=O)CC2)cc1
Dose [3]: <3.1 mg/kg | Dose [1]: 0.1 mg/kg

O=C1CCC(c2ccc(-n3cccc3)cc2)=NN1
Dose [3]: 10 mg/kg

O=C1CCC(c2ccc(-n3cnnc3)cc2)=NN1
Dose [3]: >3.1 mg/kg

O=C1CCC(c2ccc(-n3cncn3)cc2)=NN1
Dose [3]: 1 mg/kg

Cc1cc(O)nnc1-c1ccc(-n2ccnc2)cc1
Dose [1]: >1 mg/kg

CN1N=C(c2ccc(-n3ccnc3)cc2)CCC1=O
Dose [1]: >1 mg/kg

CSc1nccn1-c1ccc(C2=NNC(=O)CC2)cc1
Dose [5]: 10 mg/kg

C[S+]([O-])c1nccn1-c1ccc(C2=NNC(=O)CC2)cc1 (stereo not drawn)
Dose [3]: 10 mg/kg | Dose [1]: 0.3 mg/kg

CS(=O)(=O)c1nccn1-c1ccc(C2=NNC(=O)CC2)cc1
Dose [3]: >1 mg/kg

CC1CC(c2ccc(-n3ccnc3)cc2)=NNC1=O (stereo not drawn)
Dose [1]: 1 mg/kg

CCc1nc(C)c(Br)n1-c1ccc(-c2ccc(O)nn2)cc1
Dose [1]: 0.2 mg/kg

Cn1nc(-c2ccc(-n3ccnc3)cc2)ccc1=O
Dose [1]: >1 mg/kg

O=C(O)c1cc(-c2ccc(-n3ccnc3)cc2)nnc1O
Dose [1]: >1 mg/kg

CCc1nc(C)cn1-c1ccc(-c2ccc(O)nn2)cc1
Dose [1]: 0.3 mg/kg

Oc1ccc(-c2ccc(-n3cnc4c3CCCC4)cc2)nn1
Dose [1]: 0.1 mg/kg

NC(=O)c1cc(-c2ccc(-n3ccnc3)cc2)nnc1O
Dose [1]: >1 mg/kg

CC(=O)OCCN1N=C(c2ccc(-n3ccnc3)cc2)CCC1=O
Dose [1]: >1 mg/kg

Nc1cc(-c2ccc(-n3ccnc3)cc2)nnc1O
Dose [1]: 0.3 mg/kg

CC1CC(O)=NN=C1c1ccc(-n2ccnc2)cc1 (stereo not drawn) [CI-930]
Increase [6]: 49% | Increase [7]: 42% | Increase [8]: 70% | Dose [1]: 0.013 mg/kg | Dose [2]: 0.1 mg/kg | Increase [9]: 34%

CSc1ccc(C(=O)c2[nH]c(=O)[nH]c2C)cc1 [ENOXIMONE]
Dose [1]: 0.283 mg/kg

O=C1CCC(c2ccc(-n3ccnc3)cc2)=NN1 [IMAZODAN]
Increase [10]: 10% | Dose [1]: 0.045 mg/kg | Change [11]: -4.2% | Increase [12]: 29% | Dose [2]: 1 mg/kg | Change [13]: -2.8% | Change [14]: 62.4% | Increase [15]: 10% | Change [16]: 5.4% | Change [17]: 24% | Change [18]: 82% | Increase [19]: 40%

Nc1cc(-c2ccncc2)c[nH]c1=O [INAMRINONE]
Increase [20]: 45% | Increase [21]: 23% | Dose [1]: 0.389 mg/kg | Increase [22]: 18% | Increase [23]: 6%

CC(C)NCC(O)c1ccc(O)c(O)c1 (stereo not drawn) [ISOPROTERENOL]
Change [24]: 1% | Change [25]: 31% | Change [26]: 96% | Change [27]: 10.4% | Change [28]: -6.6% | Change [29]: 0.4%

Cc1[nH]c(=O)c(C#N)cc1-c1ccncc1 [MILRINONE]
Dose [1]: 0.037 mg/kg | Increase [12]: 60% | Increase [19]: 45%

COc1cc([S+](C)[O-])ccc1-c1nc2cccnc2[nH]1 (stereo not drawn) [SULMAZOLE]
Increase [20]: 57% | Dose [1]: 0.435 mg/kg | Increase [22]: 61%

CC1CC(=O)NN=C1c1ccc(-n2cnc3c2CCCC3)cc1 (stereo not drawn) [TETRAHYDROBENXIMIDAZOLE]
Dose [3]: 0.3 mg/kg | Dose [1]: 0.02 mg/kg
